Test systems include Streptococcus mutans; Escherichia coli UB1005; Escherichia coli JW0013.
Holding throughout (experiment): ≥ marks a high value that may be exact or a test limit, other limits are often not marked, values filed in µg/mL are converted to µM
Test [1] relates to Candida albicans ATCC 2002.
Test [2] relates to Escherichia coli ATCC 25922.
Test [3] concerns Staphylococcus aureus ATCC 25923.
Test [4] concerns Pseudomonas aeruginosa CMCCB 10104.
Test [5] relates to Pseudomonas aeruginosa PAO1.
Test [6] deals with Pseudomonas aeruginosa ATCC 27853.
Test [7] has as its system Escherichia coli DH5alpha.

Values after ≈ are worked out from the molar mass of the structure shown.

The values that follow come from DBAASP.

For the compound `CSCC[C@H](NC(=O)[C@H](CCC(=O)O)NC(=O)[C@H](C)NC(=O)[C@H](C)NC(=O)[C@@H](NC(=O)CNC(=O)[C@H](C)NC(=O)[C@@H](NC(=O)[C@H](Cc1ccccc1)NC(=O)[C@H](C)NC(=O)[C@@H](N)CC(C)C)C(C)C)C(C)C)C(=O)N[C@@H](CCSC)C(=O)N[C@@H](CCC(N)=O)C(=O)N[C@@H](Cc1cnc[nH]1)C(=O)N[C@H](C(=O)N[C@@H](Cc1ccc(O)cc1)C(=O)N[C@H]1CSSC[C@@H](C(=O)O)NC(=O)[C@H](CCCCN)NC(=O)[C@H](CCCCN)NC(=O)[C@H](CO)NC(=O)[C@H](C)NC(=O)[C@H](C)NC1=O)C(C)C` [LAFVAGVAAEMMQHVYCAASKKC], the MIC in test [1] is 5.11 µM (≈ 12.4 µg/mL); in [2] it was 2.55 µM (≈ 6.2 µg/mL); in [3], 5.11 µM (≈ 12.4 µg/mL); in test [4] it was 5.11 µM (≈ 12.4 µg/mL).
For `CC[C@H](C)[C@H](NC(=O)[C@H](C)NC(=O)[C@H](CC(C)C)NC(=O)[C@H](CC(N)=O)NC(=O)[C@H](CCCCN)NC(=O)[C@H](CC(C)C)NC(=O)[C@@H](NC(=O)[C@H](CC(=O)O)NC(=O)[C@H](CC(C)C)NC(=O)[C@H](Cc1ccccc1)NC(=O)[C@@H](N)CO)[C@@H](C)O)C(=O)N[C@@H](CO)C(=O)N[C@@H](C)C(=O)N[C@@H](C)C(=O)N[C@@H](CCCCN)C(=O)NCC(=O)N[C@@H](C)C(=O)NCC(=O)N[C@@H](CCC(N)=O)C(=O)N[C@@H](CO)C(=O)N[C@H](C(=O)N[C@@H](CC(C)C)C(=O)N[C@@H](CO)C(=O)N[C@H](C(=O)N[C@@H](CC(C)C)C(=O)N[C@@H](CO)C(=O)N[C@H]1CSSC[C@@H](C(=O)O)NC(=O)[C@H]([C@@H](C)O)NC(=O)[C@H](CCC(=O)O)NC(=O)[C@H](CO)NC(=O)[C@H](CC(C)C)NC(=O)[C@H](CCCCN)NC1=O)[C@@H](C)O)C(C)C` [SFLDTLKNLAISAAKGAGQSVLSTLSCKLSETC], the minimum inhibitory concentration (MIC) in [1] came to 1.97 µM (≈ 6.6 µg/mL); in test [2], 3.93 µM (≈ 13.2 µg/mL); in test [3] it was 1.97 µM (≈ 6.6 µg/mL); in [4], 1.97 µM (≈ 6.6 µg/mL).
Regarding `CC[C@H](C)[C@H](NC(=O)CN)C(=O)N[C@@H](CC(C)C)C(=O)NCC(=O)N[C@@H](CC(N)=O)C(=O)N[C@H](C(=O)N[C@H](C(=O)NCC(=O)N[C@@H](CCSC)C(=O)NCC(=O)N[C@@H](CCCCN)C(=O)N[C@@H](CCC(N)=O)C(=O)N[C@H](C(=O)N[C@H](C(=O)N[C@H]1CSSC[C@@H](C(=O)O)NC(=O)[C@H](CC(C)C)NC(=O)CNC(=O)[C@H](CO)NC(=O)[C@H](CC(C)C)NC(=O)CNC1=O)C(C)C)C(C)C)C(C)C)[C@@H](C)CC` [GILGNIVGMGKQVVCGLSGLC], the MIC in test [1] stood at 2.53 µM (≈ 5.1 µg/mL); in test [2] it was 2.53 µM (≈ 5.1 µg/mL); in test [3] it was 2.53 µM (≈ 5.1 µg/mL); in test [4], 5.05 µM (≈ 10.2 µg/mL).
As for `CC(C)C[C@H](NC(=O)[C@H](Cc1cnc[nH]1)NC(=O)[C@H](CCCCN)NC(=O)[C@H](Cc1ccccc1)NC(=O)[C@H](CCCN=C(N)N)NC(=O)[C@H](CCCCN)NC(=O)[C@H](CC(C)C)NC(=O)[C@H](CC(C)C)NC(=O)[C@@H](N)CCCN=C(N)N)C(=O)N[C@@H](Cc1ccccc1)C(=O)N[C@@H](CCCCN)C(=O)O` [RLLKRFKHLFK], the minimum inhibitory concentration (MIC) against Streptococcus mutans was ≥ 42.1 µM.
Regarding `CC[C@H](C)[C@H](NC(=O)CNC(=O)[C@H](CO)NC(=O)[C@H](CC(C)C)NC(=O)[C@@H](NC(=O)CN)[C@@H](C)CC)C(=O)N[C@@H](CC(C)C)C(=O)NCC(=O)N[C@H](C(=O)NCC(=O)N[C@@H](CCCCN)C(=O)N[C@@H](CCCCN)C(=O)N[C@@H](CC(C)C)C(=O)N[C@H](C(=O)N[C@H]1CSSC[C@@H](C(=O)O)NC(=O)[C@H](CC(C)C)NC(=O)CNC(=O)[C@H](CO)NC(=O)[C@H](CC(C)C)NC(=O)CNC1=O)C(C)C)C(C)C` [GILSGILGVGKKLVCGLSGLC], the MIC in [1] came out at 5.79 µM (≈ 11.5 µg/mL); in test [2], 5.79 µM (≈ 11.5 µg/mL); in [3], 2.92 µM (≈ 5.79 µg/mL); in [4], 11.6 µM (≈ 23 µg/mL).
For `CC[C@H](C)[C@H](NC(=O)[C@H](CC(C)C)NC(=O)[C@H](CCC(N)=O)NC(=O)[C@@H](NC(=O)[C@H](C)NC(=O)CNC(=O)[C@H](CCCCN)NC(=O)[C@@H](NC(=O)[C@H](CC(C)C)NC(=O)[C@@H](NC(=O)[C@H](Cc1ccccc1)NC(=O)[C@@H](NC(=O)CN)C(C)C)[C@@H](C)O)[C@@H](C)CC)[C@@H](C)O)C(=O)NCC(=O)N[C@@H](CCCCN)C(=O)N[C@H](C(=O)N[C@@H](CC(C)C)C(=O)NCC(=O)N[C@@H](CCCCN)C(=O)N[C@@H](CCC(=O)O)C(=O)N[C@@H](CC(C)C)C(=O)NCC(=O)N[C@@H](CCCCN)C(=O)N[C@H](C(=O)NCC(=O)N[C@@H](CC(C)C)C(=O)N[C@@H](CCC(=O)O)C(=O)N[C@@H](CC(C)C)C(=O)N[C@@H](CCSC)C(=O)N[C@@H](C)C(=O)N[C@H]1CSSC[C@@H](C(=O)O)NC(=O)[C@H](CCC(N)=O)NC(=O)[C@H](CC(N)=O)NC(=O)[C@H]([C@@H](C)O)NC(=O)[C@H]([C@@H](C)CC)NC(=O)[C@H](CCCCN)NC1=O)[C@@H](C)O)[C@@H](C)O` [GVFTLIKGATQLIGKTLGKELGKTGLELMACKITNQC], the MIC in test [1] was determined as 2.78 µM (≈ 10.8 µg/mL); in [2], 2.78 µM (≈ 10.8 µg/mL); in test [3] it was 5.57 µM (≈ 21.6 µg/mL); in [4], 5.57 µM (≈ 21.6 µg/mL).
Consider `CC[C@H](C)[C@H](NC(=O)[C@H](CCCN=C(N)N)NC(=O)[C@H](CCCN=C(N)N)NC(=O)[C@@H]1CCCN1C(=O)[C@@H]1CCCN1C(=O)[C@H](CCCN=C(N)N)NC(=O)[C@@H]1CCCN1C(=O)[C@H](CCCN=C(N)N)NC(=O)[C@@H]1CCCN1C(=O)[C@H](CC(C)C)NC(=O)[C@H](Cc1ccc(O)cc1)NC(=O)[C@@H]1CCCN1C(=O)[C@@H]1CCCN1C(=O)[C@H](CCCCN)NC(=O)[C@H](CCCN=C(N)N)NC(=O)[C@@H](N)C(C)C)C(=O)N[C@@H](Cc1ccc(O)cc1)C(=O)N[C@@H](CC(N)=O)C(=O)N[C@@H](CCCN=C(N)N)C(N)=O` [VRKPPYLPRPRPPRRIYNR], for which the MIC was 0.247 µM (≈ 0.6 µg/mL) against Escherichia coli UB1005, 26.3 µM (≈ 64 µg/mL) in test [5], 1.64 µM (≈ 4 µg/mL) in test [3] and 1.36 µM (≈ 3.3 µg/mL) in the test on Escherichia coli JW0013.
Consider `CC[C@H](C)[C@H](NC(=O)[C@H](Cc1cnc[nH]1)NC(=O)[C@H](C)NC(=O)[C@H](CCSC)NC(=O)[C@H](CC(N)=O)NC(=O)[C@H](CCCCN)NC(=O)[C@H](CCCCN)NC(=O)[C@@H](NC(=O)[C@@H](NC(=O)[C@H](CCCCN)NC(=O)[C@H](C)NC(=O)[C@H](Cc1ccccc1)NC(=O)[C@H](CC(C)C)NC(=O)[C@H](CCCCN)NC(=O)[C@@H]1CCCN1C(=O)[C@H](CC(C)C)NC(=O)[C@@H](N)Cc1ccccc1)[C@@H](C)CC)[C@@H](C)O)C(=O)N[C@@H](CCCN=C(N)N)C(=O)O` [FLPKLFAKITKKNMAHIR], for which the MIC in test [6] was 50 µM (≈ 108 µg/mL); in test [1] it was 0.742 µM (≈ 1.6 µg/mL); in test [2], 1.48 µM (≈ 3.2 µg/mL); in test [7] it was ≥ 50 µM; in test [3] it was 0.742 µM (≈ 1.6 µg/mL); in [4] it was 1.48 µM (≈ 3.2 µg/mL).
As to `CC[C@H](C)[C@H](NC(=O)CNC(=O)[C@H](CCCCN)NC(=O)CNC(=O)[C@H](C)NC(=O)[C@H](Cc1ccccc1)NC(=O)[C@H](CCCCN)NC(=O)[C@H](CO)NC(=O)[C@H](Cc1ccccc1)NC(=O)[C@H](CC(C)C)NC(=O)CN)C(=O)N[C@@H](CCCCN)C(=O)N[C@@H](CC(N)=O)C(=O)N[C@@H](Cc1ccccc1)C(=O)N[C@@H](CC(C)C)C(=O)N[C@H](C(=O)N[C@@H](CCCCN)C(=O)NCC(=O)N[C@H](C(=O)N[C@@H](CCCCN)C(=O)N[C@@H](Cc1cnc[nH]1)C(=O)N[C@H](C(=O)NCC(=O)N[C@@H](CCCCN)C(=O)N[C@@H](CCC(=O)O)C(=O)N[C@H](C(=O)NCC(=O)N[C@@H](CCSC)C(=O)N[C@@H](CC(=O)O)C(=O)N[C@H](C(=O)N[C@H](C(=O)N[C@@H](CCCN=C(N)N)C(=O)N[C@H](C(=O)NCC(=O)N[C@H](C(=O)N[C@@H](CC(=O)O)C(=O)N[C@H](C(=O)N[C@@H](C)C(=O)NCC(=O)N[C@H]1CSSC[C@@H](C(=O)O)NC(=O)[C@H](CCC(=O)O)NC(=O)CNC(=O)[C@H](CCCCN)NC(=O)[C@H]([C@@H](C)CC)NC(=O)[C@H](CCCCN)NC1=O)C(C)C)[C@@H](C)CC)[C@@H](C)O)[C@@H](C)CC)C(C)C)C(C)C)[C@@H](C)CC)C(C)C)[C@@H](C)CC` [GLFSKFAGKGIKNFLIKGVKHIGKEVGMDVIRTGIDVAGCKIKGEC], the MIC was 0.349 µM (≈ 1.7 µg/mL) in test [1], 0.699 µM (≈ 3.4 µg/mL) in test [2], 0.349 µM (≈ 1.7 µg/mL) in [3] and 0.699 µM (≈ 3.4 µg/mL) in test [4].
Turning to `CC[C@H](C)[C@H](NC(=O)[C@@H](NC(=O)[C@H](CC(=O)O)NC(=O)[C@H](CC(C)C)NC(=O)[C@H](CC(C)C)NC(=O)CN)[C@@H](C)O)C(=O)N[C@@H](CCCCN)C(=O)N[C@@H](CC(N)=O)C(=O)N[C@@H](CCSC)C(=O)N[C@@H](C)C(=O)N[C@@H](CC(C)C)C(=O)N[C@@H](CC(N)=O)C(=O)N[C@@H](C)C(=O)N[C@@H](C)C(=O)N[C@@H](CCCCN)C(=O)N[C@@H](CO)C(=O)N[C@@H](C)C(=O)NCC(=O)N[C@H](C(=O)N[C@@H](CO)C(=O)N[C@H](C(=O)N[C@@H](CC(C)C)C(=O)N[C@@H](CC(N)=O)C(=O)N[C@@H](CO)C(=O)N[C@@H](CC(C)C)C(=O)N[C@@H](CO)C(=O)N[C@H]1CSSC[C@@H](C(=O)O)NC(=O)[C@H]([C@@H](C)O)NC(=O)[C@H](CCCCN)NC(=O)[C@H](CO)NC(=O)[C@H](CC(=O)O)NC(=O)[C@H](CCCCN)NC1=O)C(C)C)C(C)C` [GLLDTIKNMALNAAKSAGVSVLNSLSCKDSKTC], the MIC in test [1] came to 3.46 µM (≈ 11.6 µg/mL); in [2], 1.73 µM (≈ 5.8 µg/mL); in test [3], 1.73 µM (≈ 5.8 µg/mL); in test [4], 3.46 µM (≈ 11.6 µg/mL).
